Values joined by “and” are separate entries in the source; they are usually repeats but may differ in a detail not shown here. Equal values may be shown once.
Tests used:
[1] = system: Drosophila model of Alzheimer's disease (motoneuron overexpression of human aβ42arc); test: Synapse number quantification at the neuromuscular junction of flies fed with compound; assay type: in vivo; conditions: vs DMSO
Experimental: Aβ42arc overexpressing flies and the corresponding control (LacZ expression) were fed with 3b or the solvent, DMSO, throughout all life cycle (Fig. 9 and see Methods section).
Fig. 9 In vivo effects of compound 3b. Flies with motoneuron overexpression of the human aβ42arc (arctic mutation) (D42Gal4 > aβ42arc) or mock expression (D42Gal4 > LacZ) were fed with 3b (100 μM) or same volume of vehicle DMSO. a Twenty-day old adult abdominal motoneurons were analyzed and synapse number (nc82-positive spots) of the same motoneuron in different flies (16–19) were determined using Imaris, over the confocal 1 µm stacks. […] Data are analyzed statistically with unpaired two-tailored Student’s t test; ***P < 0.001. b Locomotor activity of individual 15 days old flies was recorded for 4 days in Drosophila Activity Monitors (DAM2, Trikinetics)[36], the total number of beam breaks per hour during two consecutive days was analyzed (the activity of the first two days is considered the habituation period and is discarded). Mean ± SEM of three independent experiments with 5–12 flies per condition each, were plotted and analyzed statistically with paired two-tailed Student’s t-test, *P < 0.05. […]
The Drosophila neuromuscular junction (NMJ) allows the accurate quantitative determination of the in vivo effects of drug application on a single glutamatergic synapse. […]

[2] = Fly locomotor activity assay (DAM2 beam breaks); assay type: in vivo, Drosophila
Experimental: (§1) Fig. 9 In vivo effects of compound 3b. Flies with motoneuron overexpression of the human aβ42arc (arctic mutation) (D42Gal4 > aβ42arc) or mock expression (D42Gal4 > LacZ) were fed with 3b (100 μM) or same volume of vehicle DMSO. a Twenty-day old adult abdominal motoneurons were analyzed and synapse number (nc82-positive spots) of the same motoneuron in different flies (16–19) were determined using Imaris, over the confocal 1 µm stacks. Data are plotted in graphs, where each grey triangle (aβ42arc flies fed with vehicle) and green triangle (aβ42arc flies fed with 3b) or each grey circle (control flies fed with vehicle) and green circle (control flies fed with 3b) represents one value. Horizontal line represents mean ± SEM. Data are analyzed statistically with unpaired two-tailored Student’s t test; ***P < 0.001. b Locomotor activity of individual 15 days old flies was recorded for 4 days in Drosophila Activity Monitors (DAM2, Trikinetics)[36], the total number of beam breaks per hour during two consecutive days was analyzed (the activity of the first two days is considered the habituation period and is discarded). Mean ± SEM of three independent experiments with 5–12 flies per condition each, were plotted and analyzed statistically with paired two-tailed Student’s t-test, *P < 0.05. Source data are provided as a Source Data file, ns non significant
(§2) To measure the physiological impact of this synaptic recovery, we evaluated fly locomotor activity. As described previously, overexpression of human aβ42arc peptide leads to severe locomotor dysfunction starting at day 15–20 post-eclosion[35].
(§3) Fifteen-day-old males were placed individually in locomotor activity monitor tubes (DAM2, TriKinetics Inc.) The DAM2 system automatically counts the number of beam breaks for flies walking in a horizontal tube over a specific period of time. This setup allowed for characterization of the locomotor and behavior rhythms of Drosophila. The tubes contained fly food with 100 µM compound 3b or same volume of DMSO. Flies were raised at 25 °C in 12-h light/12-h dark. In the first 2 days flies get habituated and the next 2 days the locomotor activity was quantified.

[3] = system: Drosophila model of Alzheimer's disease (motoneuron overexpression of human aβ42arc); test: Fly locomotor activity assay (DAM2 beam breaks); assay type: in vivo
Experimental: as §1, §2, §3

dNCS-1 [4] = molecular target: T1, dNCS-1 (Drosophila melanogaster, UniProt Q9VWX8); test: STD-NMR experiments with dNCS-1; assay type: binding; conditions: compound 1 mM, 10 μM dNCS-1, 281 K
T1 construct: made in house; host or cells: E. coli
T1 sequence (Q9VWX8 1-187): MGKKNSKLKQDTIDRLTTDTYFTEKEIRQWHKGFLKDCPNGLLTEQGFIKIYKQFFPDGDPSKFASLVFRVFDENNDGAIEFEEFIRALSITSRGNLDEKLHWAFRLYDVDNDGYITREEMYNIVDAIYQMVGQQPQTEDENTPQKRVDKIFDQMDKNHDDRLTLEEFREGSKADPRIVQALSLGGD
Experimental: Fig. 5 ^1H-STD-NMR spectra of 3a–3e in the presence of dNCS-1. STD (blue) and off-resonance (red) NMR spectra acquired for compounds 3a–3e (1 mM) in the presence of 10 μM dNCS-1 (600 MHz, 281 K). Relative STD intensities are coded according to the color scale shown. The 100% STD signal corresponds to the resonance showing the highest intensity in each case and all other STD signals are calculated accordingly
The experiments were performed using a deuterated Tris (pH 7.9) buffered solution with an aliquot of DMSO-d6. A sample containing 10 μM of dNCS-1 and 1 mM of DCL species (molar ratio 1:100) was prepared. The STD experiments were acquired at 281 K on a Bruker Avance 600 MHz spectrometer equipped with a cryoprobe. […]. The same conditions were used for the acquisition of the STD-NMR spectra of the individual products with dNCS-1.

[5] = pH 7.9
Experimental: Fluorescence-based experiments with 3a–3e were carried out to estimate their affinity to dNCS-1.

dNCS-1 [6] = molecular target: T1, dNCS-1; test: tr-NOESY, DOSY and 1H-NMR of DCL mixtures in the presence of dNCS-1; assay type: binding; conditions: 281 K, up to 15 days
Experimental: Fig. 4 HPLC-MS and NMR studies of the full dynamic combinatorial library. a DCL chromatograms after 5 h in the absence and in the presence of dNCS-1. Conditions: aldehyde 1 (1.2 µL, 50 mM), 2a–2e (3.6 µL, 50 mM), catalyst (1 µL, 12 M), dNCS-1:1 [1:1], Tris buffer (20 mM, pH 7.4), 1 mM CaCl2, 0.5 M NaCl, 1 mM DTT, T = 4 °C, 2% DMSO. DCC experiments were carried out in triplicate. b 1D-^1H NMR spectrum (red) of the mixture and DOSY experiment (black) of the DCL in the presence of dNCS-1 (281 K, 600 MHz). c Tr-NOESY spectrum of the DCL mixture in the presence of dNCS-1 (mixing time 200 ms, 281 K, 600 MHz). Amplification of the region δ 7.2–8.0 ppm. […]. The new signals that reveal the formation of 3b (aromatic region) and 2c (aliphatic region) are marked with stars. ^1H-STD-NMR (blue) and off-resonance (red) NMR spectra of the mixture 2b + 3c + dNCS-1 (281 K, 600 MHz) after 15 days
DOSY-NMR and tr-NOESY-NMR experiments were also recorded to follow the exchange process.
The experiments were performed on the same samples and spectrometer, at 281 K. The tr-NOESY mixing time was fixed at 200 ms. The DOSY experiments were acquired with 16 gradient increments to a final intensity decay of 90%.

[7] = 100 μM in food, one value per fly

recognition by dNCS-1 in STD-NMR (dNCS-1 [4]): largest STD intensities
solubility observed under the experimental conditions [5]: soluble
SMILES: O=C(Cc1c[nH]c2ccccc12)NN=Cc1ccc([N+](=O)[O-])c(O)c1 (mixture of isomers) [3b]
synapse number in aβ42arc flies ([1]; fed 100 μM throughout life cycle, 20-day old adults): pathological phenotype was largely suppressed
synapse number in control (LacZ) flies ([1]; fed 100 μM): no effect
beam breaks per hour of individual flies, control + 3b, Experiment 1 [2, 7]: 102 and 219 and 449 and 504 and 422 and 192 and 564
beam breaks per hour of individual flies, control + 3b, Experiment 2 [2, 7]: 281 and 38 and 295 and 200 and 178 and 147
beam breaks per hour of individual flies, control + 3b, Experiment 3 [2, 7]: 81 and 263 and 78 and 204 and 169
locomotor activity of control flies ([2]; fed 100 μM, vs DMSO): does not reveal a significant difference
beam breaks per hour of individual flies, aβ42arc + 3b, Experiment 1 [3, 7]: 327 and 264 and 198 and 235 and 195 and 320 and 256 and 104 and 272 and 274 and 106 and 220
beam breaks per hour of individual flies, aβ42arc + 3b, Experiment 2 [3, 7]: 295 and 321 and 87 and 159 and 125 and 199 and 157 and 279 and 287 and 274
beam breaks per hour of individual flies, aβ42arc + 3b, Experiment 3 [3, 7]: 140 and 89 and 136 and 171 and 263 and 178 and 216 and 151 and 91 and 146 and 160
locomotor activity of aβ42arc flies ([3]; fed 100 μM, 15 days old flies, vs DMSO): locomotor deficit was recovered
binding to dNCS-1 (1H-NMR evolution of the mixture 3c + 2b with dNCS-1) (dNCS-1 [6]): a dNCS-1 ligand

— paper PMC6595003, “Insights into real-time chemical processes in a calcium sensor protein-directed dynamic library” (Nature Communications, 2019)
